Results as given in patent publication US5521159A, “Partially modified and retro-inverted tetrapeptides analogues of C-reactive protein fragments” (Italfarmaco S.p.A., priority 1992, dated 1996).

Tests used:
Leishmania major = assay: Effect on the leishmanicidal activity of murine peritoneal macrophage (3H-thymidine incorporation); assay type: cell-based; conditions: for 3H-thymidine incorporation by living parasites, cpm (counts per minute): 24 hours pre-incubation of macrophages, control 18,273; for % reduciton of infection: versus control
Description: Effect on the leishmanicidal activity of murine peritoneal macrophage
The peritoneal cells collected as described above were seeded in 96-well flat bottom plates (Nunc, Roskiled, DK) at a concentration of 10^5 /100 μl; and incubated per 24 hours at 37° C. At the end of the treatment, the cells not adherent to the well were separated and discharged, whereas the adherent cells were washed three time with culture medium and incubated for 24 hours with the compounds in question, then the cells were infected through a 24 hours incubation with promastigotes of Leishmania major (L. major, PVL49 strain supplied by Dr. Neal R. A., London School of Hygiene and Tropical Medicine, London, UK). At the end of the infection treatment each well was added with 100 μl of a 0.01% solution od sodium dodecylsulphate in RPMI 1640, and the plates were incubated for 30 minutes at 37° C. The Schneider's culture medium (Schneider Drosophila medium, Gibco Lab., Grand island, N.Y., USA) with 30% of FCS was added. Each well was added with 1 μCi of ^3 H-thymidine, and a 72 hours incubation was carried out at 37° C. The incorporation of radioactivity by the living parasites inside the peritoneal cells, which is correlated to the infection degree and consequently to the leishmanicidal activity of the cells, was measured by collecting the cells by means of a cell-harvester and measuring the radioactivity with liquid scintillation β-counter.

murine splenocytes = assay: Stimulation of in vitro IFN-.tau. production by murine splenocytes (ELISA); assay type: cell-based, BALB/C mice; conditions: for IFN-.tau. production, Stimulation index / IFN-.tau. production, U/ml: 24 hours; for IFN-.tau. production, Stimulation index: with respect to untreated cells; for IFN-.tau. production, U/ml: control 31 (Ex.1, Ex.2), 41 (Ex.3)
Description: Stimulation of in vitro IFN-.tau. production by murine splenocytes
The splenic cells were obtained from spleen of BALB/C mice as single cells suspension. The splenocytes thus obtained were resuspended in RPMI 1640 culture medium (Flow Lab., Hertz, UK) containing 5% of fetal calf serum (FCS) (HyClone, ST, Utah, USA) at a final concentrazione of 10^7 cells/ml, and incubated in 96-well plates for 24 hours at 37° C. in the presence of the tested compounds at the indicated concentration. At the end of the incubation the supernatant was collected, filtered by […] filter and freezed to -80° C. until the time of the test carried out by ELISA commercial kit (Genzyme, Boston, Mass., USA).

murine peritoneal cells = assay: Stimulation of the nitric oxide by murine peritoneal cells (chemiluminescence); assay type: cell-based, BALB/C mice; conditions: with lipopolysaccharide 30 μg/ml, 96 hours; for nitric oxide, Stimulation index: with respect to control; for nitric oxide content: control 20
Description: Stimulation of the nitric oxide by murine peritoneal cells
The peritoneal cells were obtained as described in the previous test, and incubated for 96 hours at 37° C. in the presence of the compounds in question and of lipopolysaccharide at a concentration of 30 μg/ml. At the end of the treatment the supernatants were collected and the nitric oxide content was determined by the chemiluminescence test described by Palmer R. M. J. et al, Nature, 327, 524, 1987.

[1] = test system: BALB/C mice inoculated with LPS; assay: In vivo protection against septic shock (LPS-inoculated mice); conditions: LPS 50 mg/kg intraperitoneally, checked for 8 days
Description: Evaluation of the in vivo protection against septic shock
BALB/C mice (6 mice/group) weighting between 20 and 25 g, were intraperitoneally inoculated with 50 mg/kg of LPS (lipopolysaccharide-Sigma). The groups, except for the control, were inoculated with increasing doses of one of the compounds of the invention dissolved in physiologic solution having a final volume of 0.5 ml, at time 0 (i.e. together with LPS) or 30 minutes after the LPS inoculation. The mice were checked for 8 days to determined the survival percentage. Compound of Example 1 yields a survival percentage of about 65% at doses of 6.2 ug/mouse and 0.62 ug/mouse, and its isomer B yields a survival percentage of about 80% at a dose of 6.25 ug/mouse and of 75% at a dose of 62.5 ug/mouse.

[2] = test system: murine peritoneal macrophages; assay: Stimulation of IL-1 production by murine peritoneal macrophages (ELISA); assay type: cell-based, BALB/C mice; conditions: 96 hours; for IL-1 production, Stimulation index: with respect to control; for IL-1 production, U/ml: control 15
Description: Stimulation of IL-1 production by murine peritoneal macrophages
Murine peritoneal macrophages were obtained by inoculation of a solution of hydrolized starch (BDH Chemicals, Poole, Dorset, UK) into the peritoneal cavity of BALB/C. mice, three days before sacrificing the animals. The peritoneal cells were then collected by washing the peritoneal cavity with a solution of RPMI 1640 containing 10% of FCS, and resuspended in the same solution at a concetration of 10^6 cells/ml in 96-well plates. The incubation was performed for 96 hours at 37° C. in the presence of the compounds in question. At the end of the treatment the supernatants were collected and used for dosing cytokine by means of a suitable ELISA commerical kit (Genzyme, Boston, Mass., USA).

Compound | 3H-thymidine incorporation by living parasites, cpm (counts per minute) (Leishmania major; 0.1 μg/ml) | % reduciton of infection (Leishmania major; 0.1 μg/ml) | 3H-thymidine incorporation by living parasites, cpm (counts per minute) (Leishmania major; 1.0 μg/ml) | % reduciton of infection (Leishmania major; 1.0 μg/ml) [%] | 3H-thymidine incorporation by living parasites, cpm (counts per minute) (Leishmania major; 10.0 μg/ml) | % reduciton of infection (Leishmania major; 10.0 μg/ml) [%] | IFN-.tau. production, Stimulation index (murine splenocytes; 0.1 μg/ml) | IFN-.tau. production, U/ml (murine splenocytes; 0.1 μg/ml) [U/ml] | IFN-.tau. production, Stimulation index (murine splenocytes; 1.0 μg/ml) | IFN-.tau. production, U/ml (murine splenocytes; 1.0 μg/ml) [U/ml] | IFN-.tau. production, Stimulation index (murine splenocytes; 10.0 μg/ml) | IFN-.tau. production, U/ml (murine splenocytes; 10.0 μg/ml) [U/ml] | nitric oxide, Stimulation index (murine peritoneal cells; 0.01 μg/ml) | nitric oxide content (murine peritoneal cells; 0.01 μg/ml) [nmol/mL] | nitric oxide, Stimulation index (murine peritoneal cells; 0.1 μg/ml) | nitric oxide content (murine peritoneal cells; 0.1 μg/ml) [nmol/mL] | nitric oxide, Stimulation index (murine peritoneal cells; 1.0 μg/ml) | nitric oxide content (murine peritoneal cells; 1.0 μg/ml) [nmol/mL] | nitric oxide, Stimulation index (murine peritoneal cells; 10.0 μg/ml) | nitric oxide content (murine peritoneal cells; 10.0 μg/ml) [nmol/mL] | other results
N=C(N)NCCC[C@H](NC(=O)[C@@H]1CCCN1C(=O)C(CCCCN)C(=O)NCN)C(=O)O (single isomer, unassigned) [Ex.1] | 5,096 cpm | over 70% | 3,783 cpm | 79 | 4,292 cpm | 77 | 1.1 | 33 | 1.9 | 60 | 1.6 | 49 | 2.2 | 43 | 3.0 | 59 | 3.9 | 77 | 2.9 | 57 | % reduciton of infection (Leishmania major; 0.1 μg/ml, listed as Es. 1): 72%; reduction of the infection degree, result in words (Leishmania major; 0.1 to 10.0 μg/ml): the utmost effective; IFN-.tau. production, Stimulation index (murine splenocytes; 1.0 μg/ml, listed as example 1): doubled; stimulation of IFN-.tau. production, result in words (murine splenocytes; 0.1 to 10.0 μg/ml): the most powerful one of the present class; survival percentage ([1]; 0.62 ug/mouse): about 65%; survival percentage ([1]; 6.2 ug/mouse): about 65%; IL-1 production, Stimulation index ([2]; 0.01 μg/ml): 0.4; IL-1 production, U/ml ([2]; 0.01 μg/ml): 6 U/ml; IL-1 production, Stimulation index ([2]; 0.1 μg/ml): 0.1; IL-1 production, U/ml ([2]; 0.1 μg/ml): 2 U/ml; IL-1 production, Stimulation index ([2]; 1.0 μg/ml): 0.1; IL-1 production, U/ml ([2]; 1.0 μg/ml): 2 U/ml; IL-1 production, Stimulation index ([2]; 10.0 μg/ml): 0.1; IL-1 production, U/ml ([2]; 10.0 μg/ml): 2 U/ml
N=C(N)NCCC[C@H](NC(=O)[C@@H]1CCCN1C(=O)C(CCCCN)C(=O)NCN)C(=O)O (single isomer, unassigned) [isomer B] | – | – | – | – | – | – | – | – | – | – | – | – | – | – | – | – | – | – | – | – | survival percentage ([1]; 6.25 ug/mouse): about 80%; survival percentage ([1]; 62.5 ug/mouse): 75%
H-gThr-(R,S)mLys-Pro-Gln-OH.AcOH [Ex.3] | 18,826 cpm | -3% | 8,377 cpm | 54 | 7,842 cpm | 57 | 1.5 | 60 | 1.5 | 60 | 1.7 | 68 | 2.5 | 50 | 3.0 | 60 | 3.3 | 66 | 4.4 | 88 | IL-1 production, Stimulation index ([2]; 0.01 μg/ml): 10.0; IL-1 production, U/ml ([2]; 0.01 μg/ml): 150 U/ml; IL-1 production, Stimulation index ([2]; 0.1 μg/ml): 10.7; IL-1 production, U/ml ([2]; 0.1 μg/ml): 160 U/ml; IL-1 production, Stimulation index ([2]; 1.0 μg/ml): 10.3; IL-1 production, U/ml ([2]; 1.0 μg/ml): 155 U/ml; IL-1 production, Stimulation index ([2]; 10.0 μg/ml): 9.3; IL-1 production, U/ml ([2]; 10.0 μg/ml): 140 U/ml
H-gThr-R,S)mLys-Pro-LeU-OH.AcOH [Ex.2] | 17,568 cpm | 4% | 11,991 cpm | 34 | 10,582 cpm | 42 | 1.8 | 57 | 1.7 | 52 | 1.9 | 60 | 4.3 | 85 | 3.1 | 61 | 3.3 | 66 | 4.0 | 79 | IL-1 production, Stimulation index ([2]; 0.01 μg/ml): 6.0; IL-1 production, U/ml ([2]; 0.01 μg/ml): 90 U/ml; IL-1 production, Stimulation index ([2]; 0.1 μg/ml): 4.0; IL-1 production, U/ml ([2]; 0.1 μg/ml): 60 U/ml; IL-1 production, Stimulation index ([2]; 1.0 μg/ml): 3.1; IL-1 production, U/ml ([2]; 1.0 μg/ml): 47 U/ml; IL-1 production, Stimulation index ([2]; 10.0 μg/ml): 3.3; IL-1 production, U/ml ([2]; 10.0 μg/ml): 50 U/ml
